Experimental data as given in patent publication US20240010652A1, “COMPOSITIONS AND METHODS FOR TREATING KIT- AND PDGFRA-MEDIATED DISEASES” (Blueprint Medicines Corporation, priority 2020, published 2024).
Where a name gives a salt, the structure may show the parent alone.

Columns and labels:
[1] = Brain penetration in rats: brain to plasma ratio (Kp,brain); type: in vivo; conditions: rat; Sprague-Dawley rats (3/compound), IV infusion 1 mg/kg/hr over 8 hours, plasma and brain homogenate at 24 hours, Cbrain/Cplasma, mean
From the text: To understand the brain penetration, brain to plasma ratios of the compounds were obtained in Sprague-Dawley (SD) rats. In vivo equilibrium distribution between blood and brain in preclinical species such as rats is a commonly used parameter to evaluate brain penetration. Kp,brain is the ratio of concentrations in brain and blood (Cbrain/Cplasma). The compound's passive diffusion characteristics, its affinity for membrane transporters at the blood-brain barrier (BBB), and the relative drug binding affinity differences between the plasma proteins and brain tissue influence the Kp,brain. Compounds with Kp,brain smaller than 0.1 have restricted access to the CNS, whereas compounds with Kp,brain greater than 0.3-0.5 are considered to have good brain penetration and compounds with Kp,brain greater than 1 freely cross the BBB (Expert Opin. Drug Delivery (2016) 13 (01): 85-92).
The brain penetration of the compounds disclosed herein was measured in Sprague-Dawley rats (3/compound). The animals received IV infusion of 1 mg/kg/hr of the compound over 8 hours via jugular vein cannulation. At 24 hours, blood was collected via tail vein bleeding or cardiac puncture (under anesthesia) and centrifuged to obtain plasma samples. Brain tissues were collected and homogenized with phosphate-buffered saline (PBS). […]

KIT D816V = KIT D816V (Homo sapiens, UniProt P10721, D816V); experiment: KIT (D816V) mutant biochemical enzymatic activity inhibition assay (EZReader 2 mobility shift) at APPKM for ATP; conditions: 0.3 nM enzyme, 20 μM ATP (APPKM), 1 μM Src tide, 25° C., 60 minutes; read-out: Kit D816V @ ATP Km IC50
From the text: PDGFRα and KIT enzymatic activity was monitored using the Perkin Elmer electrophoretic mobility shift technology platform, the EZReader 2.
Within the linear, steady-state phase of the kinase enzymatic reaction, the mixed pool of phosphorylated (product) and non-phosphorylated (substrate) peptides was passed through the microfluidic system of the PerkinElmer EZ Reader 2, under an applied electric potential difference. The presence of the phosphate group on the product peptide provided a difference in mass and charge between that of the substrate peptide, resulting in a separation of the substrate and product pools in the sample (Perrin et al., Expert Opin Drug Discovery 2010, Jan. 5(1):51-63).
As the product and substrate peptide mixture passes the lasers within the instrument, these pools are detected (λex=488 nm, λem=568 nm) and resolved as separate peaks. The ratio between these peaks reflects the activity of the compound at that concentration, in that well, under those conditions.
All test articles were dissolved in 100% DMSO at a stock concentration of 10 mM. A 100×, 10-point, 4-fold serial dilution of all test compounds was created in 100% DMSO, starting at a relevant concentration, usually 1 mM. A volume of 130 nL of each concentration was transferred to the relevant well of a 384-well assay plate (Greiner 781 201) using a TTPLabtech Mosquito nano-liter dispenser. Using the Multidrop, the remaining constituents of the reaction were then added to the 130 nL of compound as follows:
The reaction was stopped by the addition of 70 μl of Stop buffer (100 mM HEPES pH 7.5, 0.015% Brij 35, 35 mM EDTA and 0.2% of Coating Reagent 3, Caliper Lifesciences). The plate was read on a Caliper EZReader 2. For biochemical D816V and D842V activity, the following designations are used: ≤0.30 nM=A; ≥0.31 and <1.4 nM=B; ≥1.4 nM=C; and ND=not determined.

[2] = Unbound brain to plasma ratio (Kpuu,brain), from brain and plasma concentrations and equilibrium dialysis unbound fractions; type: in vivo, Sprague-Dawley rats; conditions: Sprague-Dawley, brain homogenate / plasma (unbound), intravenous, 1 mg/kg/hr; rat; calculated from brain and plasma concentrations and fu,brain (brain homogenate equilibrium dialysis), mean
Protocol: The brain penetration of the compounds disclosed herein was measured in Sprague-Dawley rats (3/compound). The animals received IV infusion of 1 mg/kg/hr of the compound over 8 hours via jugular vein cannulation. At 24 hours, blood was collected via tail vein bleeding or cardiac puncture (under anesthesia) and centrifuged to obtain plasma samples. Brain tissues were collected and homogenized with phosphate-buffered saline (PBS). The concentrations of the compounds were obtained in the plasma and brain homogenates by LC-MS/MS analysis.
Rat plasma protein binding of the tested compounds were evaluated in vitro using an equilibrium dialysis method. The tested compounds were assessed in 100% plasma in a dialysis block for 5 hours at 37° C. Samples from the donor and receiver sides were analyzed by LC-MS/MS. Plasma protein bound and unbound fractions were calculated using the following equations— […]
where: [Donor]5h is measured donor concentration at 5-hour; [Received]5h is measured receiver concentration at 5-hour; fb* is bound fraction determined from plasma; fu,p* is calculated unbound fraction for plasma. […]
Similarly, rat brain protein binding of the tested compounds was also evaluated in vitro using equilibrium dialysis method. […] of the compound was assessed in brain homogenate in a dialysis block for 5 hours at 37° C. Samples from the donor and receiver sides were analyzed by LC-MS/MS. […]

KIT D816V, sequence (P10721 26-976 D816V): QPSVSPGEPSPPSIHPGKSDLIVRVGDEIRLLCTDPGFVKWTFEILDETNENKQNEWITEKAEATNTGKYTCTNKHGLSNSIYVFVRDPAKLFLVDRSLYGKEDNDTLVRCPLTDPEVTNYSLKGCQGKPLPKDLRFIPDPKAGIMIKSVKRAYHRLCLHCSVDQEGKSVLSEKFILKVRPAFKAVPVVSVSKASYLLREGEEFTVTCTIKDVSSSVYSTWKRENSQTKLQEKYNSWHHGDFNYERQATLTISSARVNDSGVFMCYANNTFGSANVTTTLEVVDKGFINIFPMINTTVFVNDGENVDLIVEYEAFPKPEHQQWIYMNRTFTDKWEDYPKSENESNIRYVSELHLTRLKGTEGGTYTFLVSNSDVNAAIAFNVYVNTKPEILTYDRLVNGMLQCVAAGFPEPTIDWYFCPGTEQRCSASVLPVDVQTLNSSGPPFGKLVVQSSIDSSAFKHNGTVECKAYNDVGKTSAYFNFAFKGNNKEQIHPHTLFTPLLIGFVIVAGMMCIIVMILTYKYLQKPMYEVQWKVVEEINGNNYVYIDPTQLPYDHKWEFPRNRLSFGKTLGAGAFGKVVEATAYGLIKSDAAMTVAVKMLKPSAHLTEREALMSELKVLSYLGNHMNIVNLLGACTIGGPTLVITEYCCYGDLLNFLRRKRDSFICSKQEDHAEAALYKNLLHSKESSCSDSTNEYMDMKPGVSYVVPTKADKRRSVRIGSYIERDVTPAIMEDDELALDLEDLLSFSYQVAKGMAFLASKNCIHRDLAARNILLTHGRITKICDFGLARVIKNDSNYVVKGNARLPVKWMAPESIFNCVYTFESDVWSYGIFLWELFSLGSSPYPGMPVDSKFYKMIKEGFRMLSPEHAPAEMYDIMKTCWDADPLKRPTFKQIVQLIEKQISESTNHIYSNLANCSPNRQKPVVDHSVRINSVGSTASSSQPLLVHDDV

SMILES | Kp at 24 h [1] | IC50 (KIT D816V) [nM] | Kp uu at 24 h [2]
C[C@](N)(c1ccc(F)cc1)c1cnc(C2=CCN(c3ncnn4cc(-c5cnn(CCO)c5)cc34)CC2)nc1 [Compound 1, (S)-2-(4-(4-(4-(5-(1-amino-1-(4-fluorophenyl)ethyl)pyrimidin-2-yl)-3,6-dihydropyridin-1(2H)-yl)pyrrolo[2,1-f][1,2,4]triazin-6-yl)-1H-pyrazol-1-yl)ethan-1-ol] | 0.133 | 0.31 to 1.4 | 0.017
C[C@](N)(c1ccc(F)cc1)c1cnc(N2CCN(c3ncnc4[nH]c(-c5cnn(CCO)c5)cc34)CC2)nc1.Cl [Compound 2, (S)-2-(4-(4-(4-(5-(1-amino-1-(4-fluorophenyl)ethyl)pyrimidin-2-yl)piperazin-1-yl)-7H-pyrrolo[2,3-d]pyrimidin-6-yl)-1H-pyrazol-1-yl)ethan-1-ol hydrochloride] | 0.045 | ≤ 0.3 | 0.01
C[C@](N)(c1ccc(F)cc1)c1cnc(N2CCN(c3ncnc4[nH]c(-c5cnn(C6COC6)c5)cc34)CC2)nc1 [Compound 3, (S)-1-(4-fluorophenyl)-1-(2-(4-(6-(1-(oxetan-3-yl)-1H-pyrazol-4-yl)-7H-pyrrolo[2,3-d]pyrimidin-4-yl)piperazin-1-yl)pyrimidin-5-yl)ethan-1-amine] | – | ≤ 0.3 | –
C[C@@H](O)Cn1cc(-c2cc3c(N4CCN(c5ncc([C@@](C)(N)c6ccc(F)cc6)cn5)CC4)ncnc3[nH]2)cn1 [Compound 4, (R)-1-(4-(4-(4-(5-((S)-1-amino-1-(4-fluorophenyl)ethyl)pyrimidin-2-yl)piperazin-1-yl)-7H-pyrrolo[2,3-d]pyrimidin-6-yl)-1H-pyrazol-1-yl)propan-2-ol] | – | 0.31 to 1.4 | –
C[C@H](O)Cn1cc(-c2cc3c(N4CCN(c5ncc([C@@](C)(N)c6ccc(F)cc6)cn5)CC4)ncnc3[nH]2)cn1 [Compound 5, (S)-1-(4-(4-(4-(5-((S)-1-amino-1-(4-fluorophenyl)ethyl)pyrimidin-2-yl)piperazin-1-yl)-7H-pyrrolo[2,3-d]pyrimidin-6-yl)-1H-pyrazol-1-yl)propan-2-ol hydrochloride] | – | 0.31 to 1.4 | –
C[C@](N)(c1ccc(F)cc1)c1cnc(N2CCN(c3ncnc4[nH]c(-c5cnn(CC6COC6)c5)cc34)CC2)nc1 [Compound 6, (S)-1-(4-fluorophenyl)-1-(2-(4-(6-(1-(oxetan-3-ylmethyl)-1H-pyrazol-4-yl)-7H-pyrrolo[2,3-d]pyrimidin-4-yl)piperazin-1-yl)pyrimidin-5-yl)ethan-1-amine hydrochloride] | – | 0.31 to 1.4 | –
